Source: patent US4349526A, “Process for the production of hydrogen peroxide” (Degussa Aktiengesellschaft, priority 1980, dated 1982)

How the values were obtained:
[1] = Oxidation breakdown on gassing with dry air at 140° C., 2.5 hours; format: physicochemical; conditions: 36 liters dry air per hour, 150 ml urea, decrease of urea based on starting content
Procedure: In a gassing apparatus equipped with gassing frit and intensive condenser in each case gassing was carried out with 150 ml of the ureas set forth in Table 4 using 36 liters of dry air per hour at a temperature of 140° C. for 2.5 hours. During the test half hourly samples were drawn off and the oxidative breakdown followed by means of capillary gas chromatography. As a measure for the oxidative breakdown the decrease of the amount of urea in percentage based on the starting urea content is used.

Density = format: physicochemical
[2] = Oxidation resistance of hydroquinone solvents, gassing with dry air at 140° C., 50 hours; format: physicochemical; conditions: 36 liters dry air per hour, 150 ml solvent; gas chromatography
Procedure: The hydroquinone solvent content in percent based on the starting hydroquinone content was determined gas chromatographically and set forth in Table 5.

Viscosity = format: physicochemical
[3] = Mutual solubility of urea and water; format: physicochemical
[4] = in words; German AS; cited from earlier work

Row | Compound | Oxidation Breakdown After 2.5 hours [1] [%] | Hydroquinone Solvent Content (%) after 50 hours Gassing at 140° C. [2] [%] | further results
1 | CN(C(=O)N1CCOCC1)c1ccccc1 [N'-methyl-N'-phenylcarbamoyl-N-morpholine] | 0 |  | 
2 | CCC(C)N(C)C(=O)N(C)c1ccccc1 (stereo not drawn) [N,N'-dimethyl-N-s-butyl-N'-phenylurea] | 0 |  | 
3 | CN(C)C(=O)N(C)c1ccccc1 [N,N,N'-trimethyl-N'-phenylurea] | 0 |  | Density (50° C.) (Density; Table 2): 1.0392 g/mL
4 | CC(C)N(C(=O)N(C)c1ccccc1)C(C)C [N,N-di-i-propyl-N'-methyl-N'-phenylurea] | 0 |  | 
5 | CCCCN(CCCC)C(=O)N(C)c1ccccc1 [N,N-dibutyl-N'-methyl-N'-phenylurea] | 0 | 100.0 | Viscosity (50° C.) (Viscosity): 9.2 cP; Density (50° C.) (Density; Table 2): 0.9499 g/mL; Density (50° C.) (Density; Table 3): 0.950 g/mL; Solubility in Water at 20° C. [3]: 0.01%
6 | CCCCN(CCCC)C(=O)N(CC)CC [N,N-diethyl-N',N'-dibutylurea, reference compound] | 9.2 | 86.6 | 
7 | CCN(CC)C(=O)N(C)c1ccccc1 [N,N-diethyl-N'-methyl-N'-phenylurea] | 0 |  | Density (50° C.) (Density; Table 2): 0.9941 g/mL
8 | CC(C)N(C(=O)N(C)C)C(C)C [N,N-dimethyl-N'-di-i-propylurea, reference compound] | 2.6 |  | 
9 | CCCN(CCC)C(=O)N(C)c1ccccc1 [N,N-dipropyl-N'-methyl-N'-phenylurea] | 0 | 100.0 | Density (50° C.) (Density; Table 2): 0.9690 g/mL
10 | CC(C)CC(O)CC(C)C [di-i-butylcarbinol] |  | 16.6 | 
11 | CC(C)(C)c1ccccc1 [tert. butyl benzene] |  |  | oxidation resistance [4]: oxidation resistant
12 | CCCCC(CC)COP(=O)(OCC(CC)CCCC)OCC(CC)CCCC (stereo not drawn) [tris-2-ethylhexyl phosphate] |  | 88.3 | 
13 | N,N-di-i-propyl-N'-phenylurea |  | 100.0 | 
14 | methylcyclohexyl acetate |  | 77.4 | 
